Assay results from ChEMBL document CHEMBL1201861, “Genomics of Drug Sensitity in Cancer screening data, Wellcome Trust Sanger Institute”.

Columns and labels:
Test in all cases: cells
Settings in all cases: Homo sapiens
K5 = assay type: functional, cell-based
Description: SANGER: Inhibition of human K5 cell growth in a cell viability assay.

MDA-MB-175-VII = assay type: functional, cell-based
OVCAR-5 = assay type: functional, cell-based;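 also: growth inhibition of human OVCAR-5 cells, read out with a cell viability assay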
Description: SANGER: Inhibition of human OVCAR-5 cell growth in a cell viability assay.

U2OS = assay type: functional, cell-based, U-2-OS;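 also: growth inhibition of human U-2-OS cells, determined with a cell viability assay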
Description: SANGER: Inhibition of human U-2-OS cell growth in a cell viability assay.

LS-411N = assay type: functional, cell-based
SHP77 = assay type: functional, cell-based, SHP-77;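 also: growth inhibition of human SHP-77 cells measured by a cell viability assay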
Description: SANGER: Inhibition of human SHP-77 cell growth in a cell viability assay.

NCI-H209 = assay type: functional, cell-based;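 also: growth inhibition of human NCI-H209 cells, measured by a cell viability assay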
Description: SANGER: Inhibition of human NCI-H209 cell growth in a cell viability assay.

IST-SL1 = assay type: functional, cell-based;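 also: growth inhibition of human IST-SL1 cells, read out with a cell viability assay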
Description: SANGER: Inhibition of human IST-SL1 cell growth in a cell viability assay.

PSN1 = assay type: functional, cell-based;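 also: suppression of growth of human PSN1 cells, read out by a cell viability assay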
Description: SANGER: Inhibition of human PSN1 cell growth in a cell viability assay.

MPP-89 = assay type: functional, cell-based;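 also: growth inhibition of human MPP-89 cells, read out with a cell viability assay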
Description: SANGER: Inhibition of human MPP-89 cell growth in a cell viability assay.

AM-38 = assay type: functional, cell-based;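 also: growth inhibition of AM-38 cells of human origin, read out by a cell viability assay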
Description: SANGER: Inhibition of human AM-38 cell growth in a cell viability assay.

HCE-4 = assay type: functional, cell-based;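 also: cell viability assay measuring inhibition of growth in the human HCE-4 cell line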
Description: SANGER: Inhibition of human HCE-4 cell growth in a cell viability assay.

NB10 = assay type: functional, cell-based;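 also: growth inhibition of NB10 cells, read out by a cell viability assay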
Description: SANGER: Inhibition of human NB10 cell growth in a cell viability assay.

NCI-H526 = assay type: functional, cell-based;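 also: growth inhibition of the human NCI-H526 cell line, measured by a cell viability assay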
Description: SANGER: Inhibition of human NCI-H526 cell growth in a cell viability assay.

SBC-5 = assay type: functional, cell-based;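 also: cell viability assay read-out, IC50 is the concentration that inhibits growth of the cells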
Description: SANGER: Inhibition of human SBC-5 cell growth in a cell viability assay.

SW872 = assay type: functional, cell-based;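 also: growth inhibition of SW872 cells, read out by a viability assay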
Description: SANGER: Inhibition of human SW872 cell growth in a cell viability assay.

HOP-62 = assay type: functional, cell-based;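 also: cell growth inhibition determined with a viability assay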
Description: SANGER: Inhibition of human HOP-62 cell growth in a cell viability assay.

P30-OHK = assay type: functional, cell-based;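 also: growth inhibition of the P30-OHK cell line, read out with a cell viability assay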
Description: SANGER: Inhibition of human P30-OHK cell growth in a cell viability assay.

A4-Fuk = assay type: functional, cell-based;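 also: growth inhibition of A4-Fuk cells, read out by a cell viability assay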
Description: SANGER: Inhibition of human A4-Fuk cell growth in a cell viability assay.

NB6 = assay type: functional, cell-based;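 also: growth inhibition of NB6 cells, read out by a cell viability assay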
Description: SANGER: Inhibition of human NB6 cell growth in a cell viability assay.

HH = assay type: functional, cell-based
Description: SANGER: Inhibition of human HH cell growth in a cell viability assay.

DJM-1 = assay type: functional, cell-based;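 also: growth inhibition of human DJM-1 cells, read out by a cell viability assay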
Description: SANGER: Inhibition of human DJM-1 cell growth in a cell viability assay.

SK-MEL-2 = assay type: functional, cell-based;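 also: growth inhibition of human SK-MEL-2 cells measured with a cell viability assay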
Description: SANGER: Inhibition of human SK-MEL-2 cell growth in a cell viability assay.

GI-ME-N = assay type: functional, cell-based;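 also: growth inhibition of human GI-ME-N cells, read out with a cell viability assay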
Description: SANGER: Inhibition of human GI-ME-N cell growth in a cell viability assay.

BHY = assay type: functional, cell-based;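 also: cell growth inhibition read out by a viability assay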
Description: SANGER: Inhibition of human BHY cell growth in a cell viability assay.

NKM-1 = assay type: functional, cell-based;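 also: growth inhibition of NKM-1 cells, read out with a cell viability assay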
Description: SANGER: Inhibition of human NKM-1 cell growth in a cell viability assay.

HAL-01 = assay type: functional, cell-based;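 also: growth inhibition of human HAL-01 cells, read out with a cell viability assay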
Description: SANGER: Inhibition of human HAL-01 cell growth in a cell viability assay.

COLO-320-HSR = assay type: functional, cell-based;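 also: growth inhibition of COLO-320-HSR cells, determined with a cell viability assay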
Description: SANGER: Inhibition of human COLO-320-HSR cell growth in a cell viability assay.

NCI-H747 = assay type: functional, cell-based;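 also: growth inhibition of human NCI-H747 cells, read out by a cell viability assay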
Description: SANGER: Inhibition of human NCI-H747 cell growth in a cell viability assay.

NCI-H1581 = assay type: functional, cell-based;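 also: cell growth inhibition read out by a viability assay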
Description: SANGER: Inhibition of human NCI-H1581 cell growth in a cell viability assay.

COLO-829 = assay type: functional, cell-based
Description: SANGER: Inhibition of human COLO-829 cell growth in a cell viability assay.

Lu-65 = assay type: functional, cell-based;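 also: growth inhibition of Lu-65 cancer cells, read out by a cell viability assay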
Description: SANGER: Inhibition of human LU-65 cell growth in a cell viability assay.

JVM-2 = assay type: functional, cell-based;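 also: growth inhibition of JVM-2 cells determined by a cell viability assay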
Description: SANGER: Inhibition of human JVM-2 cell growth in a cell viability assay.

SJSA-1 = assay type: functional, cell-based;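 also: growth inhibition of human SJSA-1 cells, read out through a cell viability measurement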
Description: SANGER: Inhibition of human SJSA-1 cell growth in a cell viability assay.

OVCAR-4 = assay type: functional, cell-based;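 also: growth inhibition of human OVCAR-4 cells, measured with a cell viability assay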
Description: SANGER: Inhibition of human OVCAR-4 cell growth in a cell viability assay.

LS-123 = assay type: functional, cell-based
Description: SANGER: Inhibition of human LS-123 cell growth in a cell viability assay.

RS4-11 = assay type: functional, cell-based;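 also: growth inhibition of RS4-11 cells, read out by a cell viability assay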
Description: SANGER: Inhibition of human RS4-11 cell growth in a cell viability assay.

CAS-1 = assay type: functional, cell-based;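 also: growth inhibition of CAS-1 cells, measured with a cell viability assay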
Description: SANGER: Inhibition of human CAS-1 cell growth in a cell viability assay.

EW-18 = assay type: functional, cell-based;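 also: growth inhibition of EW-18 cells, read out by a cell viability assay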
Description: SANGER: Inhibition of human EW-18 cell growth in a cell viability assay.

QIMR-WIL = assay type: functional, cell-based;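 also: growth inhibition of QIMR-WIL cells, read out with a cell viability assay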
Description: SANGER: Inhibition of human QIMR-WIL cell growth in a cell viability assay.

HCT-116 = assay type: functional, cell-based
Description: SANGER: Inhibition of human HCT-116 cell growth in a cell viability assay.

EW-22 = assay type: functional, cell-based;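 also: growth inhibition of the EW-22 cell line, measured with a cell viability readout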
Description: SANGER: Inhibition of human EW-22 cell growth in a cell viability assay.

HCC1187 = assay type: functional, cell-based;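 also: growth inhibition of HCC1187 cells, read out with a cell viability assay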
Description: SANGER: Inhibition of human HCC1187 cell growth in a cell viability assay.

SF-268 = assay type: functional, cell-based;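 also: growth inhibition of SF-268 cells determined with a cell viability assay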
Description: SANGER: Inhibition of human SF268 cell growth in a cell viability assay.

RPMI-8866 = assay type: functional, cell-based
Description: SANGER: Inhibition of human RPMI-8866 cell growth in a cell viability assay.

ESS-1 = assay type: functional, cell-based;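 also: growth inhibition of human ESS-1 cells, read out by a cell viability assay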
Description: SANGER: Inhibition of human ESS-1 cell growth in a cell viability assay.

NOS-1 = assay type: functional, cell-based;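 also: growth inhibition of the human NOS-1 cell line, read out with a cell viability assay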
Description: SANGER: Inhibition of human NOS-1 cell growth in a cell viability assay.

TE-1 = assay type: functional, cell-based;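 also: growth inhibition of the human TE-1 cell line, read out with a cell viability assay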
Description: SANGER: Inhibition of human TE-1 cell growth in a cell viability assay.

SNU-C2B = assay type: functional, cell-based;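 also: cell viability readout used to measure compound-driven suppression of SNU-C2B cell proliferation, IC50 marking half-maximal growth inhibition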
Description: SANGER: Inhibition of human SNU-C2B cell growth in a cell viability assay.

ES8 = assay type: functional, cell-based;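 also: growth inhibition of human ES8 cells, read out with a cell viability assay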
Description: SANGER: Inhibition of human ES8 cell growth in a cell viability assay.

NMC-G1 = assay type: functional, cell-based;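 also: growth inhibition of the NMC-G1 cell line, measured with a cell viability read-out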
Description: SANGER: Inhibition of human NMC-G1 cell growth in a cell viability assay.

LB2518-MEL = assay type: functional, cell-based;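 also: growth inhibition of human LB2518-MEL cells, measured with a cell viability assay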
Description: SANGER: Inhibition of human LB2518-MEL cell growth in a cell viability assay.

UACC-257 = assay type: functional, cell-based
Description: SANGER: Inhibition of human UACC-257 cell growth in a cell viability assay.

LS-1034 = assay type: functional, cell-based
Description: SANGER: Inhibition of human LS-1034 cell growth in a cell viability assay.

SCC-15 = assay type: functional, cell-based;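 also: growth inhibition of SCC-15 cells, read out with a cell viability assay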
Description: SANGER: Inhibition of human SCC-15 cell growth in a cell viability assay.

HCE-T = assay type: functional, cell-based;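 also: cell viability assay read-out, reporting inhibition of HCE-T cell growth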
Description: SANGER: Inhibition of human HCE-T cell growth in a cell viability assay.

ACN = assay type: functional, cell-based;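 also: growth inhibition of the human ACN cell line, read out via cell viability testing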
Description: SANGER: Inhibition of human ACN cell growth in a cell viability assay.

LAN-6 = assay type: functional, cell-based;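 also: growth inhibition of LAN-6 cells, determined with a cell viability assay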
Description: SANGER: Inhibition of human LAN-6 cell growth in a cell viability assay.

EOL1 = assay type: functional, cell-based
Description: SANGER: Inhibition of human EoL-1-cell cell growth in a cell viability assay.

NCI-H720 = assay type: functional, cell-based
Description: SANGER: Inhibition of human NCI-H720 cell growth in a cell viability assay.

NCI-H69 = assay type: functional, cell-based
Description: SANGER: Inhibition of human NCI-H69 cell growth in a cell viability assay.

MFH-ino = assay type: functional, cell-based
Description: SANGER: Inhibition of human MFH-ino cell growth in a cell viability assay.

GCIY = assay type: functional, cell-based
Description: SANGER: Inhibition of human GCIY cell growth in a cell viability assay.

CHP-212 = assay type: functional, cell-based
Description: SANGER: Inhibition of human CHP-212 cell growth in a cell viability assay.

DK-MG = assay type: functional, cell-based
Description: SANGER: Inhibition of human DK-MG cell growth in a cell viability assay.

NC(=O)c1ncn([C@@H]2O[C@H](COP(=O)(O)O)[C@@H](O)[C@H]2O)c1N
IC50 (K5): > 2000 µM
IC50 (MDA-MB-175-VII): > 2000 µM
IC50 (OVCAR-5): > 2000 µM
IC50 (U2OS): > 2000 µM
IC50 (LS-411N): > 2000 µM
IC50 (SHP77): > 2000 µM
IC50 (NCI-H209): > 2000 µM
IC50 (IST-SL1): > 2000 µM
IC50 (PSN1): 1950 µM
IC50 (MPP-89): > 2000 µM
IC50 (AM-38): 1030 µM
IC50 (HCE-4): 1710 µM
IC50 (NB10): > 2000 µM
IC50 (NCI-H526): 115 µM
IC50 (SBC-5): 1480 µM
IC50 (SW872): > 2000 µM
IC50 (HOP-62): > 2000 µM
IC50 (P30-OHK): 541 µM
IC50 (A4-Fuk): 297 µM
IC50 (NB6): > 2000 µM
IC50 (HH): 232 µM
IC50 (DJM-1): > 2000 µM
IC50 (SK-MEL-2): > 2000 µM
IC50 (GI-ME-N): > 2000 µM
IC50 (BHY): 405 µM
IC50 (NKM-1): 180 µM
IC50 (HAL-01): 434 µM
IC50 (COLO-320-HSR): 772 µM
IC50 (NCI-H747): 1650 µM
IC50 (NCI-H1581): > 2000 µM
IC50 (COLO-829): > 2000 µM
IC50 (Lu-65): > 2000 µM
IC50 (JVM-2): > 2000 µM
IC50 (SJSA-1): 949 µM
IC50 (OVCAR-4): 751 µM
IC50 (LS-123): 690 µM
IC50 (RS4-11): 351 µM
IC50 (CAS-1): > 2000 µM
IC50 (EW-18): > 2000 µM
IC50 (QIMR-WIL): 486 µM
IC50 (HCT-116): 424 µM
IC50 (EW-22): > 2000 µM
IC50 (HCC1187): 1140 µM
IC50 (SF-268): > 2000 µM
IC50 (RPMI-8866): > 2000 µM
IC50 (ESS-1): > 2000 µM
IC50 (NOS-1): 524 µM
IC50 (TE-1): 207 µM
IC50 (SNU-C2B): > 2000 µM
IC50 (ES8): > 2000 µM
IC50 (NMC-G1): > 2000 µM
IC50 (LB2518-MEL): > 2000 µM
IC50 (UACC-257): > 2000 µM
IC50 (LS-1034): > 2000 µM
IC50 (SCC-15): 466 µM
IC50 (HCE-T): 715 µM
IC50 (ACN): 1880 µM

COc1cc(Nc2c(C#N)cnc3cc(OCCCN4CCN(C)CC4)c(OC)cc23)c(Cl)cc1Cl [BOSUTINIB]
IC50 (K5): > 2 µM
IC50 (MDA-MB-175-VII): > 2 µM
IC50 (OVCAR-5): > 2 µM
IC50 (U2OS): > 2 µM
IC50 (LS-411N): > 2 µM
IC50 (SHP77): > 2 µM
IC50 (NCI-H209): 0.408 µM
IC50 (IST-SL1): > 2 µM
IC50 (PSN1): > 2 µM
IC50 (LAN-6): > 2 µM
IC50 (MPP-89): > 2 µM
IC50 (AM-38): > 2 µM
IC50 (HCE-4): > 2 µM
IC50 (NB10): > 2 µM
IC50 (NCI-H526): 1.99 µM
IC50 (SBC-5): > 2 µM
IC50 (SW872): > 2 µM
IC50 (HOP-62): > 2 µM
IC50 (P30-OHK): > 2 µM
IC50 (A4-Fuk): 1.31 µM
IC50 (EOL1): 0.416 µM
IC50 (NB6): > 2 µM
IC50 (HH): > 2 µM
IC50 (DJM-1): > 2 µM
IC50 (SK-MEL-2): > 2 µM
IC50 (GI-ME-N): > 2 µM
IC50 (NCI-H720): > 2 µM
IC50 (NCI-H69): > 2 µM
IC50 (BHY): 1.23 µM
IC50 (NKM-1): 1.72 µM
IC50 (HAL-01): 1.09 µM
IC50 (COLO-320-HSR): > 2 µM
IC50 (MFH-ino): > 2 µM
IC50 (NCI-H747): > 2 µM
IC50 (NCI-H1581): > 2 µM
IC50 (COLO-829): > 2 µM
IC50 (GCIY): > 2 µM
IC50 (Lu-65): > 2 µM
IC50 (JVM-2): > 2 µM
IC50 (CHP-212): > 2 µM
IC50 (SJSA-1): > 2 µM
IC50 (OVCAR-4): > 2 µM
IC50 (LS-123): > 2 µM
IC50 (RS4-11): 0.486 µM
IC50 (CAS-1): > 2 µM
IC50 (EW-18): > 2 µM
IC50 (QIMR-WIL): 1.09 µM
IC50 (HCT-116): > 2 µM
IC50 (EW-22): > 2 µM
IC50 (HCC1187): > 2 µM
IC50 (SF-268): > 2 µM
IC50 (RPMI-8866): 1.26 µM
IC50 (ESS-1): > 2 µM
IC50 (NOS-1): > 2 µM
IC50 (TE-1): > 2 µM
IC50 (SNU-C2B): > 2 µM
IC50 (DK-MG): > 2 µM
IC50 (ES8): > 2 µM
IC50 (NMC-G1): > 2 µM
IC50 (LB2518-MEL): > 2 µM
IC50 (UACC-257): > 2 µM
IC50 (LS-1034): > 2 µM
IC50 (SCC-15): 1.62 µM
IC50 (HCE-T): > 2 µM
IC50 (ACN): > 2 µM

CC[C@@]1(O)C(=O)OCc2c1cc1n(c2=O)Cc2cc3ccccc3nc2-1 [CAMPTOTHECIN]
IC50 (K5): 0.0032 µM
IC50 (MDA-MB-175-VII): 0.083 µM
IC50 (OVCAR-5): 0.0433 µM
IC50 (U2OS): 0.0135 µM
IC50 (LS-411N): 0.0581 µM
IC50 (SHP77): > 0.1 µM
IC50 (NCI-H209): 4.84e-05 µM
IC50 (IST-SL1): 0.0344 µM
IC50 (PSN1): 0.00307 µM
IC50 (MPP-89): 0.0272 µM
IC50 (AM-38): 0.00441 µM
IC50 (HCE-4): 0.00181 µM
IC50 (NB10): 0.000614 µM
IC50 (NCI-H526): 0.00103 µM
IC50 (SBC-5): 0.0321 µM
IC50 (SW872): 0.0242 µM
IC50 (HOP-62): > 0.1 µM
IC50 (P30-OHK): 0.00279 µM
IC50 (A4-Fuk): 0.00175 µM
IC50 (EOL1): 0.000271 µM
IC50 (HH): 0.0135 µM
IC50 (SK-MEL-2): 0.0548 µM
IC50 (GI-ME-N): 0.0339 µM
IC50 (NCI-H720): 0.0447 µM
IC50 (BHY): 0.00531 µM
IC50 (NKM-1): 0.000441 µM
IC50 (HAL-01): 0.00255 µM
IC50 (COLO-320-HSR): 0.0621 µM
IC50 (MFH-ino): 0.0271 µM
IC50 (NCI-H1581): 0.0335 µM
IC50 (COLO-829): 0.0117 µM
IC50 (GCIY): 0.0661 µM
IC50 (JVM-2): > 0.1 µM
IC50 (CHP-212): 0.00103 µM
IC50 (SJSA-1): 0.018 µM
IC50 (LS-123): > 0.1 µM
IC50 (RS4-11): 0.000902 µM
IC50 (QIMR-WIL): 0.000775 µM
IC50 (HCT-116): 0.00505 µM
IC50 (EW-22): 0.000557 µM
IC50 (SF-268): 0.00338 µM
IC50 (RPMI-8866): 0.00172 µM
IC50 (ESS-1): 0.00708 µM
IC50 (NOS-1): 0.0919 µM
IC50 (TE-1): 0.0351 µM
IC50 (SNU-C2B): 0.0354 µM
IC50 (DK-MG): 0.0847 µM
IC50 (ES8): 0.000796 µM
IC50 (NMC-G1): 0.0198 µM
IC50 (LB2518-MEL): 0.0873 µM
IC50 (LS-1034): > 0.1 µM
IC50 (SCC-15): 0.0186 µM
IC50 (HCE-T): 0.00547 µM
IC50 (ACN): 0.0857 µM
